Measurements from ChEMBL document CHEMBL2203286, “Synthesis and structure-activity relationship studies of cytotoxic vinorelbine amide analogues” (Bioorg Med Chem Lett, 2012).

Experiments:
A549 [1] = test: Cytotoxicity against human A549 cells after 24 to 72 hrs by MTT assay; assay type: functional, cell-based
Mus musculus [2] = test: Toxicity in BALB/cA nude mouse xenografted with human A549 cells assessed as change in body weight at 9 mg/kg, iv once every seven days for three doses (reference value: 27.61 g); conditions: in vivo
A549 [3] = test: Ratio of navelbine IC50 to compound IC50 for human A549 cells; assay type: functional
A549 [4] = test: Antitumor activity against human A549 cells xenografted in BALB/cA nude mouse assessed as growth inhibition at 9 mg/kg, iv once every seven days for three doses relative to control; conditions: read-out: GI
Mus musculus [5] = test: Toxicity in BALB/cA nude mouse xenografted with human A549 cells assessed as mortality at 9 mg/kg, iv […]; assay type: organism-based; parameters: dose 9 mg/kg, route intravenous; conditions: in vivo

Row | SMILES | IC50 (A549 [1]) | also measured
1 | CCCCC(=O)NC[C@@]1(O)[C@H](OC(C)=O)[C@]2(CC)C=CCN3CC[C@@]4(c5cc([C@@]6(C(=O)OC)C[C@@H]7C=C(CC)CN(Cc8c6[nH]c6ccccc86)C7)c(OC)cc5N(C)[C@@H]14)[C@@H]32 | 22.1 nM | –
2 | CCC1=C[C@@H]2CN(C1)Cc1c([nH]c3ccccc13)[C@@](C(=O)OC)(c1cc3c(cc1OC)N(C)[C@H]1[C@@](O)(CNC(=O)C(C)C)[C@H](OC(C)=O)[C@]4(CC)C=CCN5CC[C@]31[C@@H]54)C2 | 11.4 nM | –
3 | CCC1=C[C@@H]2CN(C1)Cc1c([nH]c3ccccc13)[C@@](C(=O)OC)(c1cc3c(cc1OC)N(C)[C@H]1[C@@](O)(CNC(=O)CC(C)C)[C@H](OC(C)=O)[C@]4(CC)C=CCN5CC[C@]31[C@@H]54)C2 | 22 nM | –
4 | CCC1=C[C@@H]2CN(C1)Cc1c([nH]c3ccccc13)[C@@](C(=O)OC)(c1cc3c(cc1OC)N(C)[C@H]1[C@@](O)(CNC(=O)C(C)(C)C)[C@H](OC(C)=O)[C@]4(CC)C=CCN5CC[C@]31[C@@H]54)C2 | 37 nM | –
5 | CCC1=C[C@@H]2CN(C1)Cc1c([nH]c3ccccc13)[C@@](C(=O)OC)(c1cc3c(cc1OC)N(C)[C@H]1[C@@](O)(CNC(=O)C4CC4)[C@H](OC(C)=O)[C@]4(CC)C=CCN5CC[C@]31[C@@H]54)C2.O=C(O)C(O)C(O)C(=O)O | 3 nM | Activity (Mus musculus [2]): 26.53 g; Ratio IC50 (A549 [3]): 3; inhibition in vivo at 9 mg/kg (A549 [4]): 18%; Activity (Mus musculus [5]): Non-toxic
6 | CCC(=O)NC[C@@]1(O)[C@H](OC(=O)CC)[C@]2(CC)C=CCN3CC[C@@]4(c5cc([C@@]6(C(=O)OC)C[C@@H]7C=C(CC)CN(Cc8c6[nH]c6ccccc86)C7)c(OC)cc5N(C)[C@@H]14)[C@@H]32 | 12 nM | –
7 | CCC1=C[C@@H]2CN(C1)Cc1c([nH]c3ccccc13)[C@@](C(=O)OC)(c1cc3c(cc1OC)N(C)[C@H]1[C@@](O)(CNC(=O)Cc4ccccc4)[C@H](OC(C)=O)[C@]4(CC)C=CCN5CC[C@]31[C@@H]54)C2 | 16.2 nM | –
8 | CCC1=C[C@@H]2CN(C1)Cc1c([nH]c3ccccc13)[C@@](C(=O)OC)(c1cc3c(cc1OC)N(C)[C@H]1[C@@](O)(CNC(=O)c4ccccc4)[C@H](OC(C)=O)[C@]4(CC)C=CCN5CC[C@]31[C@@H]54)C2.O=C(O)C(O)C(O)C(=O)O | 5 nM | Activity (Mus musculus [2]): 24.6 g; inhibition in vivo at 9 mg/kg (A549 [4]): 43.5%; Activity (Mus musculus [5]): Non-toxic
9 | CCC1=C[C@@H]2CN(C1)Cc1c([nH]c3ccccc13)[C@@](C(=O)OC)(c1cc3c(cc1OC)N(C)[C@H]1[C@@](O)(CNC(=O)c4ccc(C)cc4)[C@H](OC(C)=O)[C@]4(CC)C=CCN5CC[C@]31[C@@H]54)C2 | 15.3 nM | –
10 | CCC1=C[C@@H]2CN(C1)Cc1c([nH]c3ccccc13)[C@@](C(=O)OC)(c1cc3c(cc1OC)N(C)[C@H]1[C@@](O)(CNC(=O)c4cccc(C)c4)[C@H](OC(C)=O)[C@]4(CC)C=CCN5CC[C@]31[C@@H]54)C2 | 17.2 nM | –
11 | CCC1=C[C@@H]2CN(C1)Cc1c([nH]c3ccccc13)[C@@](C(=O)OC)(c1cc3c(cc1OC)N(C)[C@H]1[C@@](O)(CNC(=O)c4ccc(F)cc4)[C@H](OC(C)=O)[C@]4(CC)C=CCN5CC[C@]31[C@@H]54)C2 | 6.6 nM | –
12 | CCC1=C[C@@H]2CN(C1)Cc1c([nH]c3ccccc13)[C@@](C(=O)OC)(c1cc3c(cc1OC)N(C)[C@H]1[C@@](O)(CNC(=O)c4ccccc4F)[C@H](OC(C)=O)[C@]4(CC)C=CCN5CC[C@]31[C@@H]54)C2 | 7.3 nM | –
13 | CCC1=C[C@@H]2CN(C1)Cc1c([nH]c3ccccc13)[C@@](C(=O)OC)(c1cc3c(cc1OC)N(C)[C@H]1[C@@](O)(CNC(=O)c4c(F)cccc4F)[C@H](OC(C)=O)[C@]4(CC)C=CCN5CC[C@]31[C@@H]54)C2 | 7.9 nM | –
14 | CCC1=C[C@@H]2CN(C1)Cc1c([nH]c3ccccc13)[C@@](C(=O)OC)(c1cc3c(cc1OC)N(C)[C@H]1[C@@](O)(CNC(=O)c4cccc(OC)c4)[C@H](OC(C)=O)[C@]4(CC)C=CCN5CC[C@]31[C@@H]54)C2 | 6.3 nM | –
15 | CCC1=C[C@@H]2CN(C1)Cc1c([nH]c3ccccc13)[C@@](C(=O)OC)(c1cc3c(cc1OC)N(C)[C@H]1[C@@](O)(CNC(=O)c4ccc(OC)c(OC)c4)[C@H](OC(C)=O)[C@]4(CC)C=CCN5CC[C@]31[C@@H]54)C2 | 6.5 nM | –
16 | CCC1=C[C@@H]2CN(C1)Cc1c([nH]c3ccccc13)[C@@](C(=O)OC)(c1cc3c(cc1OC)N(C)[C@H]1[C@@](O)(CNC(=O)c4ccc(Cl)cc4)[C@H](OC(C)=O)[C@]4(CC)C=CCN5CC[C@]31[C@@H]54)C2 | 25.6 nM | –
17 | CCC1=C[C@@H]2CN(C1)Cc1c([nH]c3ccccc13)[C@@](C(=O)OC)(c1cc3c(cc1OC)N(C)[C@H]1[C@@](O)(CNC(=O)c4ccc(C(F)(F)F)cc4)[C@H](OC(C)=O)[C@]4(CC)C=CCN5CC[C@]31[C@@H]54)C2 | 20.7 nM | –
18 | CCC1=C[C@@H]2CN(C1)Cc1c([nH]c3ccccc13)[C@@](C(=O)OC)(c1cc3c(cc1OC)N(C)[C@H]1[C@@](O)(CNC(=O)c4ccc([N+](=O)[O-])cc4)[C@H](OC(C)=O)[C@]4(CC)C=CCN5CC[C@]31[C@@H]54)C2 | 41.1 nM | –
19 | CCC1=C[C@@H]2CN(C1)Cc1c([nH]c3ccccc13)[C@@](C(=O)OC)(c1cc3c(cc1OC)N(C)[C@H]1[C@@](O)(CNC(=O)c4ccco4)[C@H](OC(C)=O)[C@]4(CC)C=CCN5CC[C@]31[C@@H]54)C2.O=C(O)C(O)C(O)C(=O)O | 3.2 nM | Activity (Mus musculus [2]): 25.45 g; inhibition in vivo at 9 mg/kg (A549 [4]): 58%
20 | CCC1=C[C@@H]2CN(C1)Cc1c([nH]c3ccccc13)[C@@](C(=O)OC)(c1cc3c(cc1OC)N(C)[C@H]1[C@@](O)(CNC(=O)c4ccncc4)[C@H](OC(C)=O)[C@]4(CC)C=CCN5CC[C@]31[C@@H]54)C2 | 8.1 nM | –
21 | CCC1=C[C@@H]2CN(C1)Cc1c([nH]c3ccccc13)[C@@](C(=O)OC)(c1cc3c(cc1OC)N(C)[C@H]1[C@@](O)(CNC(C)=O)[C@H](OC(C)=O)[C@]4(CC)C=CCN5CC[C@]31[C@@H]54)C2 | 24.5 nM | –
22 | CCCC(=O)NC[C@@]1(O)[C@H](OC(C)=O)[C@]2(CC)C=CCN3CC[C@@]4(c5cc([C@@]6(C(=O)OC)C[C@@H]7C=C(CC)CN(Cc8c6[nH]c6ccccc86)C7)c(OC)cc5N(C)[C@@H]14)[C@@H]32 | 17.3 nM | –
23 | CCC(=O)NC[C@@]1(O)[C@H](OC(C)=O)[C@]2(CC)C=CCN3CC[C@@]4(c5cc([C@@]6(C(=O)OC)C[C@@H]7C=C(CC)CN(Cc8c6[nH]c6ccccc86)C7)c(OC)cc5N(C)[C@@H]14)[C@@H]32 | 15.6 nM | –
24 | CCC1=C[C@@H]2CN(C1)Cc1c([nH]c3ccccc13)[C@@](C(=O)OC)(c1cc3c(cc1OC)N(C)[C@H]1[C@@](O)(C(=O)OC)[C@H](OC(C)=O)[C@]4(CC)C=CCN5CC[C@]31[C@@H]54)C2 [VINORELBINE] | 9 nM | Activity (Mus musculus [2]): 26.22 g; inhibition in vivo at 9 mg/kg (A549 [4]): 55.9%; Activity (Mus musculus [5]): Non-toxic
